Tests used:
[1] = test system: HBV; assay: In vivo pharmacodynamic study of hydrodynamic injection mouse HBV model (HDI-HBV) via tail vein; set-up: species or system Balb/c mice; settings: mouse plasma
Procedure: Anti-hepatitis B virus activity of the compound of the embodiment in vivo was evaluated by HDI mice model.
Balb/c mice, 10% HP—F-CD as vehicle, test compound, RG7834, ETV (Entecavir), pAAV2-HBV 1.3mer plasmid (extracted with Qiagen EndoFree Plasmid Giga kit), main reagents including QIAamp96 DNA kit and FasStart Universal Probe Mast (ROX). The main instruments used in this experiment included centrifuge (Beckman Allegra X-15R), tissue grinder (QIAGEN-Tissue lyser II) and spectrophotometer (Thermo-NANODROP 1000).
b) On day 0, all mice were subjected to hydrodynamic injection with HBV plasmid DNA solution via tail vein. The plasmid DNA was pre-treated with sterile physiological saline before injection and stored at 4° C. until use. Plasmid DNA solution was injected via the tail vein at a dose of 8% of the body weight of the mouse within 5 seconds.
c) On the 1st day to the 7th day, the mice were administered with the compound or solvent by oral gavage for 7 days.
d) On the 1st day, 3rd day and 5th day, the blood was collected from the submandibular vein of the mice, and heparin sodium was used as an anticoagulant. The blood sample was centrifuged at 7,000×g, 4° C. to prepare the plasma for the determination of HBV DNA.
e) On the 7^h day, all mice were euthanized by CO2. The blood was collected from the heart to prepare plasma, and the liver tissue was collected. Two left hepatic lobe were isolated, the size of which was 70-100 mg, and were frozen by liquid nitrogen immediately after collection. One of the hepatic lobe was used for HBV DNA detection, and the other was used for backup.
The content of HBsAg in the serum of the mice was determined by ELISA (enzyme linked immunosorbent assay). The experimental procedure refers to the specification of HBsAg ELISA kit.
The inhibitory activity of the test compound on HBV replication on the mouse HDI model was determined by measuring the content of HBsAg in the plasma of the mice.

[2] = test system: HBV; assay: Anti-HBV activity on the hepatitis B virus mouse model (AAV-HBV); assay type: in vivo, C57BL/6 mice; settings: 10 mg/kg, PO
Procedure: The AAV vector-mediated HBV infected mouse model is a fast and efficient HBV model. Using the high hepatotropism of the AAV vector, the recombinant adeno-associated type 8 virus carrying 1.3 copies of the HBV genome (rAAV8-1.3HBV) is injected into the tail vein of mice, which can efficiently introduce the carried 1.3 copy HBV genome into hepatocytes. Due to the characteristics of the AAV viral vector, the vector mediated by it can express for a long time. The AAV/HBV model can continuously replicate HBV DNA and express HBsAg and HBeAg in the liver of the mice.
The anti-HBV efficacy of the test compound in vivo was evaluated by determining the content of HBsAg in the serum of the mice after treatment with the test compound on AAV/HBV mouse mode.
C57BL/6 mice, 10% HP-f-CD as vehicle, reference compound TDF (Tenofovir), test compound, recombinant virus rAAVS-1.3HBV, main reagents of the experiment including QIAamp96 DNA kit and TaqMan® Universal PCR Master Mix, Hepatitis B Virus Surface Antigen Detection Kit, instruments including: centrifuge (Beckman Allegra X-15R), tissue grinder (QIAGEN-Tissue lyser II) and spectrophotometer (Thermo-NANODROP 1000).
a) All mice were orally administered on the 28th day after the virus injection, and the day was set as day 0. Submaxillary blood of all mice was collected for serum collection before administration. The mice were administered once a day for four weeks.
b) Submaxillary blood of all mice was collected for serum collection twice a week, the volume of the blood collected each time was approximately 100 μL.
c) On the 28th day, all mice were euthanized and the blood was collected from the heart for serum collection.
The content of HBsAg in the serum of the mice was determined by ELISA. The experimental procedure refers to the specification of HBsAg ELISA kit.
a) The anti-HBV activity of the test compound on AAV/HBV mice model was evaluated by determining the content of HBsAg in the plasma of the mice.

[3] = 14-day pre-toxicology tolerance test on rat; assay type: in vivo; settings: once a day for 14 days, male rats
Procedure: [table] A total of 21 animals in this experiment were randomly divided into 7 groups. The animals were orally administered with the test compounds once a day for 14 consecutive days, and the toxicity was evaluated. Animal necropsy and tissue would be taken from the fixative, repaired, dehydrated, embedded, sectioned, stained and microscopically examined. These tissues included the liver, heart and lung of all animals, and spleen, stomach, duodenum, jejunum, ileum, and kidney of partial animals.

[4] = test system: hepatitis B; settings: woodchuck model, RG7834 as a single drug; cited from earlier work

SMILES: COCCCOc1cc2c(cc1OC)-c1cc(=O)c(C(=O)O)cn1[C@H](C(C)C)C2 [RG7834, reference compound]
- Log HBsAg (IU/mL) (Ave. value) ([1]; dosing time day 1, 30 mg/kg QD gavage): 3.75 IU/mL
- Log HBsAg (IU/mL) (Ave. value) ([1]; dosing time day 3, 30 mg/kg QD gavage): 4.08 IU/mL
- Log HBsAg (IU/mL) (Ave. value) ([1]; dosing time day 5, 30 mg/kg QD gavage): 3.59 IU/mL
- Log HBsAg (IU/mL) (Ave. value) ([1]; dosing time day 7, 30 mg/kg QD gavage): 1.10 IU/mL
- HBsAg content in the plasma of the mice ([2]; day 4): 3.54 IU/mL
- HBsAg content in the plasma of the mice ([2]; day 7): 3.58 IU/mL
- HBsAg content in the plasma of the mice ([2]; day 11): 3.70 IU/mL
- HBsAg content in the plasma of the mice ([2]; day 14): 3.49 IU/mL
- HBsAg content in the plasma of the mice ([2]; day 18): 3.70 IU/mL
- HBsAg content in the plasma of the mice ([2]; day 21): 3.52 IU/mL
- HBsAg content in the plasma of the mice ([2]; day 25): 3.50 IU/mL
- HBsAg content in the plasma of the mice ([2]; day 28): 3.66 IU/mL
- HBsAg content in the plasma of the mice ([2]; day −1): 4.56 IU/mL
- histopathological changes associated with the test compound ([3]; high dose group (1000 mg/kg)): mild myocardial degeneration in the heart, mild degeneration of central hepatic cells in the small lobules of the liver, mild decrease of white pulp lymphocytes in the spleen, and moderate acute inflammation of the duodenal mucosa
- histopathological changes associated with the test compound ([3]; medium and low dose groups (300 and 100 mg/kg), heart, liver and lung examined): no histopathological changes associated with the test compound were observed
- reduction of HBV-DNA [4]: 1.7 Log
- reduction of surface antigens [4]: 2.57 Log

Reference: patent US20200197409A1, “HEPATITIS B VIRUS SURFACE ANTIGEN INHIBITOR” (FUJIAN COSUNTER PHARMACEUTICAL CO., LTD., priority 2017, published 2020)
